Data as given in PubChem BioAssay AID330 (DTP/NCI, 2004).
Values joined by “and” are separate entries in the source; they are usually repeats but may differ in a detail not shown here. Equal values may be shown once. Toxic doses and inconclusive results are not listed. Rule for the calls: active = survival T/C of 150% or more; inactive = T/C below 125% in these data.

Test system: P388 leukemia ip, CD2F1 mice, survival T/C
Assay: NCI In Vivo Anticancer Drug Screen. Data for tumor model P388 Leukemia (intraperitoneal) in CD2F1 (CDF1) mice
Settings: endpoint: median survival time, higher = longer survival
Outline: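 Mice carrying the transplanted tumor received test compound or vehicle. Survival was recorded in each group, and the value is the treated-group measurement divided by that of the vehicle-treated control group.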

[1] = dose: 100.0 mg/kg/injection, schedule: Q04DX002 (ip), vehicle: saline with Tween-80
[2] = dose: 200.0 mg/kg/injection, schedule: Q04DX002 (ip), vehicle: saline with Tween-80
[3] = dose: 400.0 mg/kg/injection, schedule: Q04DX002 (ip), vehicle: saline with Tween-80
[4] = dose: 100.0 mg/kg/injection, schedule: Q01DX009 (ip), vehicle: saline with Tween-80
[5] = dose: 200.0 mg/kg/injection, schedule: Q01DX009 (ip), vehicle: saline with Tween-80
[6] = dose: 50.0 mg/kg/injection, schedule: Q01DX005 (ip), vehicle: Klucel (hydroxypropylcellulose) (HPC)
[7] = dose: 100.0 mg/kg/injection, schedule: Q01DX005 (ip), vehicle: Klucel (hydroxypropylcellulose) (HPC)
[8] = dose: 200.0 mg/kg/injection, schedule: Q01DX005 (ip), vehicle: Klucel (hydroxypropylcellulose) (HPC)
[9] = dose: 60.0 mg/kg/injection, schedule: Q01DX005 (ip), vehicle: saline with Tween-80
[10] = dose: 100.0 mg/kg/injection, schedule: Q04DX003 (ip), vehicle: saline with Tween-80
[11] = dose: 200.0 mg/kg/injection, schedule: Q04DX003 (ip), vehicle: saline with Tween-80
[12] = dose: 400.0 mg/kg/injection, schedule: Q04DX003 (ip), vehicle: saline with Tween-80
[13] = dose: 120.0 mg/kg/injection, schedule: Q01DX005 (ip), vehicle: saline with Tween-80
[14] = dose: 240.0 mg/kg/injection, schedule: Q01DX005 (ip), vehicle: saline with Tween-80
[15] = dose: 25.0 mg/kg/injection, schedule: Q01DX009 (ip), vehicle: saline with Tween-80
[16] = dose: 50.0 mg/kg/injection, schedule: Q01DX009 (ip), vehicle: saline with Tween-80
[17] = dose: 50.0 mg/kg/injection, schedule: Q01DX009 (ip), vehicle: Klucel (hydroxypropylcellulose) (HPC)
[18] = dose: 100.0 mg/kg/injection, schedule: Q01DX009 (ip), vehicle: Klucel (hydroxypropylcellulose) (HPC)
[19] = dose: 200.0 mg/kg/injection, schedule: Q01DX009 (ip), vehicle: Klucel (hydroxypropylcellulose) (HPC)

Measured: T/C

CC1=C(C(=O)Nc2ccccc2)C(c2ccc(Cl)cc2Cl)C(C(=O)Nc2ccccc2)=C(C)N1
inactive: [1] 99 % of control | [2] 101 % of control | [3] 92 % of control

CCOC(=O)c1nc2ccccc2c(=O)[nH]1
inactive: [4] 102 % of control | [5] 108 % of control | dose: 400.0 mg/kg/injection, schedule: Q01DX009 (ip), vehicle: saline with Tween-80 100 % of control

NC(N)=NC(=O)c1ccccc1
inactive: dose: 50.0 mg/kg/injection, schedule: Q01DX005 (ip), vehicle: saline 100 % of control | dose: 100.0 mg/kg/injection, schedule: Q01DX005 (ip), vehicle: saline 100 % of control | dose: 200.0 mg/kg/injection, schedule: Q01DX005 (ip), vehicle: saline 100 % of control

Cc1cccc(Nc2nc(C)nc3[nH]c(Cc4ccccc4)c(C)c23)c1
inactive: [6] 86 % of control | [7] 86 % of control | [8] 88 % of control

O=C(Cc1cccc(CC(=O)c2ccccc2)n1)c1ccccc1
inactive: dose: 15.0 mg/kg/injection, schedule: Q01DX005 (ip), vehicle: saline with Tween-80 108 % of control | dose: 30.0 mg/kg/injection, schedule: Q01DX005 (ip), vehicle: saline with Tween-80 92 % of control | [9] 92 % of control and 93 % of control

N=C(N)c1ccc2oc(/C=C/C=C/C=C/c3cc4cc(C(=N)N)ccc4o3)cc2c1
inactive: dose: 100.0 mg/kg/injection, schedule: Q04DX003 (ip), vehicle: saline 124 % of control

CN(C)C(=O)C1SCCCS1
inactive: [1] 107 % of control | [2] 108 % of control | [3] 108 % of control

CCCCCOn1nnc2ccccc21
inactive: [10] 101 % of control | [11] 101 % of control | [12] 101 % of control

Cc1cc(C)n(C2=NS(=O)(=O)c3ccccc3N2C)n1
inactive: [9] 93 % of control | [13] 101 % of control | [14] 99 % of control

CN=C(N)N/N=C(\C)c1ccc(/C(C)=N/NC(N)=NC)cc1
inactive: dose: 25.0 mg/kg/injection, schedule: Q04DX002 (ip), vehicle: saline with Tween-80 112 % of control

CCCCCCCCCC(C)(O)C#CC(C)(O)CCCCCCCCC (stereo not drawn)
inactive: [4] 87 % of control | [5] 95 % of control | [12] 86 % of control

COc1cccc(C(O)c2ccncc2C)c1OC (stereo not drawn)
inactive: dose: 12.5 mg/kg/injection, schedule: Q01DX009 (ip), vehicle: water 100 % of control | dose: 25.0 mg/kg/injection, schedule: Q01DX009 (ip), vehicle: water 99 % of control | dose: 50.0 mg/kg/injection, schedule: Q01DX009 (ip), vehicle: water 100 % of control | dose: 100.0 mg/kg/injection, schedule: Q01DX009 (ip), vehicle: water 99 % of control | dose: 200.0 mg/kg/injection, schedule: Q01DX009 (ip), vehicle: water 99 % of control

O=C(/C=C/c1ccccc1)n1nnc2cc(Cl)c(Cl)cc21
inactive: dose: 12.5 mg/kg/injection, schedule: Q01DX009 (ip), vehicle: saline with Tween-80 92 % of control | [15] 115 % of control | [16] 92 % of control | [4] 99 % of control | [5] 96 % of control

Nc1ccc(Nc2c3ccccc3nc3ccccc23)cc1
inactive: dose: 6.25 mg/kg/injection, schedule: Q04DX003 (ip), vehicle: saline 104 % of control | dose: 12.5 mg/kg/injection, schedule: Q04DX003 (ip), vehicle: saline 100 % of control | dose: 25.0 mg/kg/injection, schedule: Q04DX003 (ip), vehicle: saline 121 % of control

O=[N+]([O-])c1ccc2nc(Cl)sc2c1
inactive: [15] 95 % of control | [16] 90 % of control | [4] 109 % of control

COC(=O)c1nnn(-c2c(C)cccc2C(C)C)c1C(=O)c1ccccc1
inactive: [9] 100 % of control | [13] 109 % of control | [14] 94 % of control

CN(C)CC(C)(CN(C)C)C(=O)/C=C/c1ccc(Cl)c(Cl)c1
inactive: dose: 1.88 mg/kg/injection, schedule: Q01DX005 (ip), vehicle: saline with Tween-80 118 % of control | dose: 3.75 mg/kg/injection, schedule: Q01DX005 (ip), vehicle: saline with Tween-80 110 % of control | dose: 7.5 mg/kg/injection, schedule: Q01DX005 (ip), vehicle: saline with Tween-80 102 % of control and 110 % of control

COc1ccc(Cl)cc1NC(=O)c1ccccc1F
inactive: [17] 120 % of control | [18] 104 % of control | [19] 118 % of control

CC(C)(C)N1C(=O)C(Cl)(C#N)C1c1ccccc1 (stereo not drawn)
inactive: dose: 60.0 mg/kg/injection, schedule: Q01DX005 (ip), vehicle: Klucel (hydroxypropylcellulose) (HPC) 95 % of control | dose: 120.0 mg/kg/injection, schedule: Q01DX005 (ip), vehicle: Klucel (hydroxypropylcellulose) (HPC) 92 % of control | dose: 240.0 mg/kg/injection, schedule: Q01DX005 (ip), vehicle: Klucel (hydroxypropylcellulose) (HPC) 92 % of control

COc1ccc(NC(CCN2CCCCC2)=NC(C)(C)C)cc1
inactive: [16] 110 % of control | [4] 104 % of control | [5] 101 % of control

Cc1ccc2ccccc2c1N(CC(=O)O)S(=O)(=O)c1ccccc1 (tested in a mixture with another compound)
inactive: dose: 12.5 mg/kg/injection, schedule: Q01DX001 (ip), vehicle: saline with Tween-80 110 % of control | dose: 25.0 mg/kg/injection, schedule: Q01DX001 (ip), vehicle: saline with Tween-80 105 % of control | dose: 50.0 mg/kg/injection, schedule: Q01DX001 (ip), vehicle: saline with Tween-80 110 % of control

Cc1cc(NC(=O)C(=O)CC(=O)c2ccc(Cl)c(Cl)c2)no1
inactive: dose: 100.0 mg/kg/injection, schedule: Q01DX001 (ip), vehicle: saline with Tween-80 101 % of control | dose: 200.0 mg/kg/injection, schedule: Q01DX001 (ip), vehicle: saline with Tween-80 108 % of control | dose: 400.0 mg/kg/injection, schedule: Q01DX001 (ip), vehicle: saline with Tween-80 97 % of control

COC(=O)C(=O)C1CCc2c(C(=O)OC)nc3[nH]n(-c4ccccc4)c(=O)c3c21 (stereo not drawn)
inactive: [9] 111 % of control | [13] 94 % of control | [14] 88 % of control

Nc1ccc(O)c2c1C(=O)c1c(O)c(S(=O)(=O)O)cc(N)c1C2=O
inactive: dose: 25.0 mg/kg/injection, schedule: Q01DX005 (ip), vehicle: Klucel (hydroxypropylcellulose) (HPC) 108 % of control | [6] 102 % of control | [7] 105 % of control | [8] 102 % of control

S=C(Nc1nccs1)Nc1nccs1
inactive: dose: 3.13 mg/kg/injection, schedule: Q01DX009 (ip), vehicle: Klucel (hydroxypropylcellulose) (HPC) 98 % of control | dose: 6.25 mg/kg/injection, schedule: Q01DX009 (ip), vehicle: Klucel (hydroxypropylcellulose) (HPC) 98 % of control | dose: 12.5 mg/kg/injection, schedule: Q01DX009 (ip), vehicle: Klucel (hydroxypropylcellulose) (HPC) 95 % of control | dose: 25.0 mg/kg/injection, schedule: Q01DX009 (ip), vehicle: Klucel (hydroxypropylcellulose) (HPC) 92 % of control

CCN1CSC(=S)N(Cc2ccccc2)C1
inactive: [17] 99 % of control | [18] 101 % of control | [19] 101 % of control

CCOC(=O)/C=C/c1ccc2c(c1)OCO2
inactive: [10] 100 % of control | [11] 90 % of control | [12] 100 % of control
